“Also recorded” adds a separate entry of the source.
Key:
[1] = test system: MARCH5-deficient Jurkat cells; test: γc level by immunoblotting in control or MARCH5-deficient Jurkat cells treated with PC; type: cell-based, human; details: PC 0, 0.5, 1 μM, 24 h, listed as PC
[2] = test system: MC38 colorectal carcinoma and B16F10 melanoma; test: Pitavastatin calcium (PC) therapy in C57BL/6j mice, MC38 and B16F10 tumor models; type: in vivo, mouse; details: PC alone 5 mg/kg/day i.p.; MC38 and B16F10 in C57BL/6j mice; listed as PC
Method: C57BL/6j mice were subcutaneously injected with 5×10^5 of MC38 or B16F10 cells. On day 3 (MC38) or 5 (B16F10) after tumor cell implantation, mice were intraperitoneally injected with control or PC (5 mg/kg/day). Tumor sizes were measured every two days by caliper. Tumor-bearing mice were euthanized on day 13 (MC38) or day 15 (B16F10). Tumor weights were measured by Analytical Balance. […] Data were analyzed using a student's unpaired t-test with GraphPad Prism 8. • (D) Effects of PC on the level of γc in TILs. TILs were isolated from the MC38 tumor tissues of FIG. 7C. TILs were stained with the indicated antibodies and analyzed by flow cytometry. […] Data were analyzed using a student's unpaired t-test with GraphPad Prism 8. […] TILs were isolated from the MC38 tumor tissues of FIG. 7C. TILs were stained with the indicated antibodies and analyzed by flow cytometry. […] C57BL/6j mice were subcutaneously injected with MC38 cells (5×10^5). […] Tumor sizes were measured every two days by caliper from day 5. […]
Pitavastatin calcium (PC) therapy in C57BL/6j mice: mice were intraperitoneally injected with control or PC (P129617, 5 mg/kg/day, dissolved in PBS, Aladdin) three (MC38 tumor) or five (B16F10 tumor) days after inoculation of tumor cells, and tumor sizes were measured every two days by caliper. […] TILs were analyzed by flow cytometry.

MC38 cells = test: PC, IL-2 and anti-PD-1 therapy in C57BL/6j mice bearing MC38 tumors; type: in vivo; details: PC 5 mg/kg, IL-2 50000 IU per mouse, anti-PD-1 100 μg per mouse, i.p.
Method: (§1) C57BL/6j mice were subcutaneously injected with 5×10^5 of MC38 or B16F10 cells. On day 3 (MC38) or 5 (B16F10) after tumor cell implantation, mice were intraperitoneally injected with control or PC (5 mg/kg/day). Tumor sizes were measured every two days by caliper. Tumor-bearing mice were euthanized on day 13 (MC38) or day 15 (B16F10). Tumor weights were measured by Analytical Balance. […] Data were analyzed using a student's unpaired t-test with GraphPad Prism 8. • (D) Effects of PC on the level of γc in TILs. TILs were isolated from the MC38 tumor tissues of FIG. 7C. TILs were stained with the indicated antibodies and analyzed by flow cytometry. […] Data were analyzed using a student's unpaired t-test with GraphPad Prism 8. […] TILs were isolated from the MC38 tumor tissues of FIG. 7C. TILs were stained with the indicated antibodies and analyzed by flow cytometry. […] C57BL/6j mice were subcutaneously injected with MC38 cells (5×10^5). […] Tumor sizes were measured every two days by caliper from day 5. […] C57BL/6j mice were subcutaneously injected with MC38 cells (5×10^5). […] Mice were sacrificed when the tumor size is bigger than 15 mm of the mean tumor diameter, tumor volume exceeded 2000 mm^3, or tumor had ulcers with diameter reached 10 mm. Statistical analysis was performed using the GraphPad Prism 8 software, n=8. Kaplan-Meier survival curves and corresponding log-rank (Mantel-Cox) tests were used to evaluate the statistical differences between groups in survival studies. There is a significant difference when the P<0.05.
Tumor size and mouse survival were measured every two days from day 5.
For survival studies, mice were sacrificed when the tumor size was bigger than 15 mm of the mean tumor diameter, tumor volume exceeded 2000 mm^3, or tumor had ulcers with a diameter reached 10 mm. Statistical analysis was performed using the GraphPad Prism 8 software. Kaplan-Meier survival curves and corresponding log-rank (Mantel-Cox) tests were used to evaluate the statistical differences between groups in survival studies. There is a significant difference when the P<0.05.

tumor = test: PC or rosuvastatin calcium alone or with IL-2 on tumor growth in mice; type: in vivo, mouse
Excerpt: We further tested the anti-tumor effects of PC in mouse MC38 colorectal carcinoma and B16F10 melanoma models.

[3] = test system: tumor-infiltrating lymphocytes; test: Flow cytometry of tumor-infiltrating lymphocytes from MC38 tumors after PC; type: in vivo, mouse
Method: as §1
Cells were subjected to stain with the indicated antibodies for 30 min in 4° C. The cells were analyzed and data were acquired with BD Fortessa X-20 and FACSDiva 7 software following the exemplified gating strategy for flow cytometry analysis. The data were processed using FlowJo software.
Pitavastatin calcium (PC) therapy in C57BL/6j mice: mice were intraperitoneally injected with control or PC (P129617, 5 mg/kg/day, dissolved in PBS, Aladdin) three (MC38 tumor) or five (B16F10 tumor) days after inoculation of tumor cells, and tumor sizes were measured every two days by caliper. Tumor-bearing mice were euthanized on day 13 (MC38 tumor) or day 15 (B16F10 tumor). TILs were analyzed by flow cytometry.
Tumor tissues were separated from the mice and cut into pieces. The tumor tissues were suspended with 2 ml of tumor digestion buffer (1×HBSS buffer with 5 mg/ml collagenase II and 0.1% DNaseI) and rotated for at 37° C. for 1 h. The cell suspension was filtered using a 70-μm filter to obtain single-cell suspension. […] Cells were analyzed and data were acquired with BD Fortessa X-20 and FACSDiva 7 software following the exemplified gating strategy for flow cytometry analysis. […]

MARCH5 = target: T1, MARCH5 (Homo sapiens, UniProt Q9NX47); test: MARCH5 / γc-luciferase reporter system in co-transfected HEK293 cells (screen of FDA-approved drugs); type: cell-based
T1 construct: expressed in transfected cells; host or cells: HEK293
T1 sequence (Q9NX47 1-278): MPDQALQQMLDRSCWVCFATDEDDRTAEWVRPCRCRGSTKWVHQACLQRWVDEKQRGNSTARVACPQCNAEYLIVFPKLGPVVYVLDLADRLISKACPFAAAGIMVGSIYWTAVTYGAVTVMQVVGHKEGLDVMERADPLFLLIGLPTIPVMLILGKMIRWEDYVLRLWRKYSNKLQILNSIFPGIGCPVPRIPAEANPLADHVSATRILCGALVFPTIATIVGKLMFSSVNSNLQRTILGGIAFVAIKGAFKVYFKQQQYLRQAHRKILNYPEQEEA
Excerpt: Unfortunately, no pharmacological inhibitors of MARCH5 have been reported. We designed a reporter system in which HEK293 cells are co-transfected with two plasmids encoding MARCH5 and γc-luciferase fusion protein respectively. In this system, inhibition of MARCH5 by an inhibitor would result in increased luciferase activity in reporter assays.
Using this system, we screened a collection of Food and Drug Administration-approved drugs and identified 10 compounds that increased luciferase activity to more than 1.5-folds (Table 1). […] Pitavastatin is a unique lipophilic statin and potent inhibitor of HMG-CoA reductase with a strong effect on lowering plasma total cholesterol and triacylglycerol. Pitavastatin has also been reported to have pleiotropic beneficial effects such as suppression of inflammation, regulation of angiogenesis and osteogenesis, improvement of endothelial function and arterial stiffness.

γc = γc level by immunoblotting after PC treatment of T cells and T cell lines; type: cell-based; details: PC 0, 0.5, 1, 2 μM, 24 h; human and mouse CD8+ T, Jurkat, HPB-ALL, CTLL2 cells; listed as PC

Q: What does the source list for `O=C(O)C[C@H](O)C[C@H](O)/C=C/c1c(C2CC2)nc2ccccc2c1-c1ccc(F)cc1` [Pitavastatin calcium]?
A: γc protein level, MARCH5 dependence [1]: did not further increase its protein level; also recorded: MARCH5-deficiency impairs PC-induced up-regulation of γc; also recorded: up-regulated the level of γc in a MARCH5-dependent manner; tumor growth [2]: significantly suppressed tumor growth; also recorded: suppresses tumor growth; also recorded: inhibited tumor growth; tumor suppression by IL-2 or IL-2 plus PD-1 blocking antibody when PC is added (MC38 cells): significantly improved the efficacy of anti-tumor immunotherapy in mice; overall survival of mice treated with IL-2 or IL-2 plus PD-1 blocking antibody when PC is added (MC38 cells; listed as PC): significantly increased the efficacies; also recorded: promotes the survival rate of mice treated with IL-2 and PD-1 blockade; tumor suppression by IL-2 or IL-2 plus PD-1 blocking antibody when PC is added (MC38 cells; listed as PC): significantly increased the efficacies; also recorded: potentiates the anti-tumor efficacy of IL-2 and PD-1 combination; also recorded: sensitized the anti-tumor effects of IL-2 as well as its combination with PD-1 blocking antibody; synergistic effect with IL-2 on tumor suppression (tumor; combined with IL-2, mice): has a synergistic effect; tumor growth (tumor; statin administered alone, mice): suppressed tumor growth; level of γc in tumor-infiltrating lymphocytes ([3]; MC38 tumors, PC 5 mg/kg/day i.p., listed as PC): higher level of γc; also recorded: up-regulated the level of γc in tumor-infiltrating lymphocytes; percentage of TIM3+ cells in infiltrated CD8+ T cells ([3]; MC38 tumors, PC treatment): reduced the percentage of TIM3^+ cells; percentage of GzmB+ cells in infiltrated CD8+ T cells ([3]; MC38 tumors, PC treatment, listed as PC): up-regulated the percentage of GzmB^+ cells; also recorded: increases tumor infiltrating CD8^+ cytotoxic T cells; percentages of CD8+ T, NK, CD4+ T, Treg and B cells in tumor-infiltrating lymphocytes ([3]; after PC administration): did not show significant difference; Rel. Luc. Act (MARCH5; HEK293 cells co-transfected with MARCH5 and γc-luciferase fusion protein, increase = MARCH5 inhibition): 2.06; luciferase activity in MARCH5-expressing versus control HEK293 cells (MARCH5; confirmative experiments): specifically increased the luciferase activity in MARCH5-expressing but not control HEK293 cells; level of γc (immunoblotting) (γc): up-regulated the level of γc in a dose-dependent manner; also recorded: up-regulates the level of γc

Reference: patent US20260216168A1, “MODULATION OF PD-1 SIGNALING FOR TREATMENT OF DISEASES” (Wuhan University, priority 2023, published 2026)
